This note sets out measurements from the METLIN SMRT retention time set (Domingo-Almenara et al. 2019).

A short description of this data set: gradient 5% acetonitrile 3 min, to 50% in 2 min, to 85% in 15 min, held 3 min, 100 µL/min. To be noted: column: Zorbax Extend-C18 2.1 x 50 mm; eluents: water / acetonitrile, 0.1% formic acid. In a few lines: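 The system's dead and dwell volumes were 40 μL and 900 μL, with a Zorbax Extend-C18 column (2.1 × 50 mm, 1.8 μm) run at 100 μL/min in water and acetonitrile containing 0.1% formic acid each. Pure standards were analyzed in mixtures of ~100 molecules by HPLC–quadrupole time-of-flight mass spectrometry in positive and negative ionization mode. Retention time was assigned from computationally picked, manually inspected adduct peaks.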
Regarding `Cc1cc(Nc2ccccc2)nc(N2CCN(C(=O)Nc3ccc(F)cc3)CC2)n1`, the RP-LC retention time came to 696 s.
For `Cc1ccc(-c2nc(-c3ccc4c(c3)ncn4CCN3CCCCC3)no2)s1`, the RP-LC retention time stood at 646 s.
The figure for `CN(C)CCNC(=O)c1csc(-c2ccc(N3CCCC3)nc2)n1` is 548 s; for `CCC(CC)C(=O)N1CCC(N2CCN(Cc3ccc(C)cc3)C(=O)C2=O)CC1` it is 756 s; for `O=C(CCn1nnc2cc(-c3noc(-c4ccc(F)c(F)c4)n3)ccc21)N1CCCC1` it is 946 s.
Molecule `CCCN1CCN(c2ncc3c(n2)CCN(Cc2ccc(OCC)c(OCC)c2)C3)CC1` displayed an RP-LC retention time of 579 s.
Under `COc1ccc(S(=O)(=O)N(C(C)=O)c2ccccc2/C=C/c2cc[n+]([O-])cc2)cc1` stands 785 s.
Consider `COCCCNC(=O)CC1CCN(C(=O)c2[nH]c(C)c(C)c2C)CC1`, for which the RP-LC retention time was 667 s.
The figure for `Cc1ccc(-c2nc3nc(C)cc(N(C)CCO)n3n2)cc1` is 638 s; for `CCCNS(=O)(=O)c1cc(-c2[nH]ncc2C(=O)N(C)C)oc1C` it is 608 s.
For `CC(C)OCCCNC(=O)c1ccc2c(c1)CCCN2S(C)(=O)=O`, the RP-LC retention time was 767 s.
Under `Cc1ccc(NC(=O)C2CCc3sc(C(=O)N(C)C)cc3C2)c(C)c1` (centres undefined) stands 799 s; under `N#Cc1ccc(N2C=C(C(=O)N3CCCCC3)S(=O)(=O)c3ccc(F)cc32)cc1`, 824 s.
The figure for `CSc1ccc(-c2noc(Cn3ncn4nc(-c5ccccc5Cl)cc4c3=O)n2)cc1` is 1200 s; for `CCc1ccc(C2=C(C)C(N3CCCN(C(=O)c4cccs4)CC3)=NS2(=O)=O)cc1` it is 893 s; for `COc1cccc(NC(=O)Cn2c(C)nc3onc(C)c3c2=O)c1` it is 708 s.
The figure for `Cc1cccc(S(=O)(=O)N2CCN(c3nc4ccncc4n(CC(C)C)c3=O)CC2)c1` is 778 s; for `CCCn1nnc2cc(-c3noc(CN4C(=O)COc5ccccc54)n3)ccc21` it is 926 s; for `Cc1cc(S(=O)(=O)N2CCC(n3cnnc3-c3ccccc3)CC2)ccc1F` it is 840 s.
`CCCCc1ccc(N2CCn3c2nc2c3c(=O)n(CC(=O)O)c(=O)n2C)cc1` showed an RP-LC retention time of 826 s.
Under `O=C(NCc1ccccc1Cl)C1CCN(c2cncnc2N2CCCC2)CC1` stands 677 s; under `COc1ccc(CNC(=O)Cn2nc3c(N4CCSCC4)nccn3c2=O)cc1`, 762 s; under `O=c1c2cc(-c3ccc(F)cc3)nn2ccn1CC(O)c1ccc(F)cc1` (centres undefined), 859 s.
Under `CCC(C)NC(=O)c1c2c(cn(-c3ccc(C)cc3)c1=O)C(=O)CC(C)(C)C2` (centres undefined) stands 1000 s; under `O=C(C1CCN(c2nc3ccc(-c4cccs4)nc3s2)CC1)N1CCOCC1`, 826 s.
Under `Cc1cc(C)nc(SCc2cc(=O)c(OC(=O)c3cccc([N+](=O)[O-])c3C)co2)n1` stands 883 s; under `COc1ccc(Br)cc1-c1nnc2n(C)c3c(=O)n(C)c(=O)n(C)c3n12`, 641 s; under `O=S(=O)(Nc1ccc(F)cc1)c1cccc2cccnc12`, 792 s.
Turning to `CC(C)CC(=O)Nc1ccc(-n2cnc(C(=O)N3CCN(C4CCCCC4)CC3)c2)nc1`, the RP-LC retention time worked out at 620 s.
Under `Cc1ccsc1C(=O)NCC1Cn2cccc2C(=O)N1CC(C)C` (centres undefined) stands 783 s.
The figure for `COc1ccc(-c2cc(C(=O)Nc3ccc4c(c3)CCC(=O)N4)c3ccccc3n2)cc1` is 822 s; for `CCS(=O)(=O)c1nc2ccc(NS(=O)(=O)c3ccc(C(C)C)cc3)cc2s1` it is 975 s.
`O=C(Nc1nnc(SCc2cccc(Cl)c2)s1)c1ccccc1C(F)(F)F` displayed an RP-LC retention time of 1010 s.
The figure for `COc1ccc(C(=O)N2CCCCC2c2nncn2CC2CC2)cc1F` (centres undefined) is 718 s.
Under `CCCCOc1ccc(-c2nc(C3CC(=O)N(c4ccc(CC)cc4)C3)no2)cc1` (centres undefined) stands 1390 s; under `Cc1ccsc1CN1CCn2nnc(CCC(=O)N3CCCC3)c2C1`, 646 s.
The figure for `CCCC(=O)Nc1nc(C(=O)OCC)cs1` is 700 s.
`O=C(NC1CCCCCC1)C1CCCN(c2ccc(=O)n(-c3cccc(Cl)c3)n2)C1` (centres undefined) gave an RP-LC retention time of 966 s.
Under `CCSc1nnc(-c2nn(C)c3c2CN(S(=O)(=O)c2cccc(F)c2)CC3)n1CC` stands 922 s.
The figure for `CCc1noc(-c2cccnc2N2CCCN(Cc3ccccc3F)CC2)n1` is 662 s.
The figure for `O=c1n(Cc2cccc(Br)c2)nc2c(S(=O)(=O)N3CCCCCC3)cccn12` is 1010 s.
`Cc1nn(-c2ccccc2)c(C)c1S(=O)(=O)N1CCC(C(=O)Nc2ccc(F)cc2)CC1` gave an RP-LC retention time of 948 s.
Under `CCN1CCCn2cc(S(=O)(=O)N3CCN(Cc4ccccc4)CC3)cc2C1=O` stands 587 s; under `Cc1cc(N2CCN(C)CC2)nc2ccc(NC(=O)Nc3ccccc3Br)cc12`, 609 s; under `NCCc1noc(-c2ccccc2)n1`, 580 s.
The figure for `O=C(NCCC1CCN(C(=O)Nc2cc(F)cc(F)c2)CC1)C1CCCC1` is 860 s.
Under `Cc1cc2nc(C(=O)Nc3cc(F)ccc3C)cc(C)n2n1` stands 1050 s.
For the molecule `O=C(NC1CCCC1)c1ccc(Cn2nc(N3CCN(c4ccccc4)CC3)ccc2=O)o1`, the RP-LC retention time turned out to be 844 s.
On to `CCc1cccc(NS(=O)(=O)c2cc(-c3c(CC)noc3NC(C)=O)ccc2C)c1`, for which the RP-LC retention time amounted to 900 s.
With `O=C(c1ccccc1)N1CCN(c2nnc3ccccn23)CC1`, the RP-LC retention time came to 608 s.
The molecule `COc1ccc(C2Cn3nnc(-c4nc(-c5ccc(F)cc5)no4)c3CO2)cc1` (centres undefined) showed an RP-LC retention time of 1130 s.
Take `CC(C)(C)C(=O)N1CCCC(C(=O)N2CCOCC2)C1` (centres undefined): the RP-LC retention time is 625 s.
Under `Cc1ccccc1-c1nc(-c2ccc(S(=O)(=O)N3CCOCC3)cc2)no1` stands 1170 s; under `CCOc1ccc(-c2noc(Cn3ccn4nc(-c5ccccc5C)cc4c3=O)n2)cc1`, 1160 s; under `COc1cccc(CNC(=O)CN2CCc3[nH]c4c(C)c(Cl)ccc4c(=O)c3C2)c1`, 636 s.
The figure for `Cc1sc2ncnc(N3CCCC(C)C3)c2c1C(=O)Nc1ccc(C(F)(F)F)cc1` (centres undefined) is 1340 s; for `O=C(Cc1cccc(F)c1)N1CCC2(CC1)N=C(c1ccc(Cl)cc1)NO2` it is 912 s.
In turn, `O=C(C1CCN(c2nnc(-c3ccccc3)o2)CC1)N1CCN(c2ccccn2)CC1` showed an RP-LC retention time of 602 s.
For `CCc1nc(-c2csc(S(=O)(=O)N3CCCC(C(=O)NCc4ccccc4C)C3)c2)no1` (centres undefined), the RP-LC retention time is 1010 s.
The figure for `N#CCCN1CCN(c2ccc(NC(=O)C3CCC3)c(C(=O)O)c2)CC1` is 586 s.
Under `CCCn1cc(CNC(=O)CN2CCN(Cc3ccc(F)cc3)C2=O)c(C)n1` stands 674 s; under `CCN1C(=O)c2cc(S(=O)(=O)NCc3cccc(C)c3)ccc2Oc2cccnc21`, 1030 s; under `CCCNC(=O)C12CCC(C)(C(=O)C1)C2(C)C` (centres undefined), 657 s.
The figure for `CN(C)CCNC(=O)CN1C(=O)C2CCCCN2c2ccc(C(=O)N3CCCCC3)cc21` (centres undefined) is 619 s; for `Cc1ccc(-n2c(N3CCC(C(=O)NCCC(C)C)CC3)nc3ccsc3c2=O)cc1` it is 890 s.
`O=C1CCCc2c1cc(C(=O)NCc1ccccn1)c(=O)n2-c1ccc(F)cc1`: the RP-LC retention time stood at 630 s.
Under `CCCCNC(=O)c1cc(NS(=O)(=O)c2c(C)cc(C)cc2C)cnc1N1CCNCC1` stands 661 s; under `Cc1cc(S(=O)(=O)N(C)C2CCc3nn(CC4CC4)c(=O)n3CC2)ccc1Cl` (centres undefined), 827 s.
For `CCc1nc(-c2csc(S(=O)(=O)N3CCCC(C(=O)Nc4ccccc4F)C3)c2)no1` (centres undefined), the RP-LC retention time turned out to be 1010 s.
The figure for `CCOC(=O)c1noc2ncnc(NCc3cccc(Cl)c3)c12` is 1040 s.
For `COc1ccc(C(=O)NC2CCN(c3cc(-c4ccc(Cl)cc4)[nH]n3)C2)cn1` (centres undefined), the RP-LC retention time amounted to 732 s.
Under `CCN1C(=O)C2CC3(CCN(Cc4ccc5cc[nH]c5c4)CC3)CN2C1=O` (centres undefined) stands 621 s; under `CN(CC1CCOCC1)C(=O)Cc1ccccc1Cl`, 771 s; under `Cc1ccc(C)c(CNC(=O)c2nnc(-c3ccc(S(=O)(=O)N4CCC(C)CC4)cc3)o2)c1`, 1160 s.
The figure for `O=C(Cn1nc2n(c1=O)CCCCC2)Nc1ccc(F)cc1` is 666 s; for `CCCN1C(=O)COc2ccc(-c3csc(NC(=O)c4ccncc4)n3)cc21` it is 816 s.
Take `CSc1ccc(CNC(=O)c2cn3cccc(C)c3n2)cc1`: the RP-LC retention time was determined as 755 s.
Under `CCn1c(=O)c(NCc2ccc(F)cc2Cl)nc2ccncc21` stands 661 s.
The figure for `Cc1ccc(S(=O)(=O)Nc2n[nH]nc2C(N)=O)cc1` is 603 s.
